Like-named read-outs stand apart in the source and are kept apart here.
Assays:
[1] = system: IL-6 secretion in the human mast cell line HMC 1.1; test: IL-6 production inhibition assay (IL-33 stimulated HMC 1.1 cells, IL-6 ELISA); assay type: cell-based; settings: 24 hours; for inhibition at 1 µM: 1 μM compound, read-out: Inhibition of hIL-6 production (%) 1 μM; for inhibition at 10 µM: 10 μM compound, read-out: Inhibition of hIL-6 production (%) 10 μM
Procedure: Human mast cell line HMC 1.1 cells were cultured in medium (Iscove's Modified Dulbecco's Medium, IMDM, HyClone) supplemented with […] fetal bovine serum (FBS, HyClone) and 1% antibiotics and maintained at 37° C. with 5% CO2.
HMC 1.1 cells, which are non-adherent cells, were cultured in 0.5 mL of culture medium containing 200 nM of IL-33 wild type human recombinant protein after centrifugation of cells in culture flasks filled to […] capacity and incubated for 24 hours with […], 10 μM, 25 μM, 30 μM or 50 μM of Example compound.
Medium was harvested by centrifugation (2,000×g, 5 min) and stored at −80° C. until ELISA assay.
Experiments were performed according to the protocol using the Human IL-6 ELISA kit (abCam).
The average of the three values obtained in triplicate was calculated and the amount of IL-6 secretion was measured using a standard curve. The measured IL-6 secretion was converted to 100% based on the vehicle treatment sample value to obtain the vehicle %.

IL33 and ST2 binding = molecular target: T1, IL33 and ST2 binding (Homo sapiens, UniProt O95760);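 also: plate ELISA with coated Flag-tagged human IL-33 and His-tagged human ST2, bound ST2 detected by anti-His HRP and TMB absorbance at 450 nm, 2 h compound incubation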
T1 sequence (O95760 112-270 limits assumed): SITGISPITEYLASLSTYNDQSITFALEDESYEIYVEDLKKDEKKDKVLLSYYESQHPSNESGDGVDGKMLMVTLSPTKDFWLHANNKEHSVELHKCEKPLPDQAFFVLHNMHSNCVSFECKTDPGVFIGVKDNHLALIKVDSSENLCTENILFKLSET
Procedure: 100 nM of Flag tagged IL-33 human recombinant protein was prepared in 1× coating buffer (Biolegend) and placed in a 96 well microplate (Coming) using a Multichannel pipette (Gilson) and coated for at least 12 hours at 4° C.
After washing three times with PBST (1×PBS (Welgene), 1% Tween 20 (sigma)), it was reacted with 1% BSA (Bovogen) blocking buffer for 1 hour at room temperature.
Samples containing 200 nM of His-tagged ST2 human recombinant protein and 60 μM or 200 μM Example synthetic compounds were prepared, added in equal volumes, and reacted for at least 2 hours at room temperature.
After washing three times with PBST (1×PBS (Welgene), 1% Tween 20 (sigma)), anti-His HRP (BioLegend) antibody was diluted 5000:1 and reacted for at least 1 hour at room temperature.
After washing three times with PBST (1×PBS (Welgene), 1% Tween 20 (sigma)), TMB substrate solution (Thermo) was added and reacted for more than 5 minutes. The reaction was stopped by adding 1 N HCl (Samchun) and the absorbance value was obtained at 450 nm after orbital shaking for 5 s with a Microplate reader (Tecan, Spark®).
The results derived from the program linked to the microplate reader were analyzed using an Excel program. IL33-ST2 binding rate (binding %) was calculated by averaging the three values obtained in triplicate, subtracting the positive control value, and converting the negative control value to 100%. The inhibition % value of each compound was obtained by subtracting the IL33-ST2 binding % from 100%, and the error range of triplicate was also obtained and reflected in the inhibition graph of the compound.

Structure (SMILES): CCNC(=O)c1nc(-c2ccc(C(F)(F)F)cc2)oc1-c1cc(OC)c(OC)c(OC)c1 [Compound 304, N-Ethyl-2-(4-(trifluoromethyl)phenyl)-5-(3,4,5-trimethoxyphenyl)oxazole-4-carboxamide]
- inhibition at 1 µM [1]: -47%
- inhibition at 10 µM [1]: -74%

Structure (SMILES): CCCNC(=O)c1nc(-c2ccc(C(F)(F)F)cc2)oc1-c1ccccc1 [Compound 295, 5-Phenyl-N-propyl-2-(4-(trifluoromethyl)phenyl)oxazole-4-carboxamide]
- inhibition at 1 µM [1]: 53%
- inhibition at 10 µM [1]: 57%

Structure (SMILES): CCCNC(=O)c1nc(-c2ccc(C(F)(F)F)cc2)oc1-c1cccc(O)c1 [Compound 319, 5-(3-Hydroxyphenyl)-N-propyl-2-(4-(trifluoromethyl)phenyl)oxazole-4-carboxamide]
- inhibition at 1 µM [1]: 75%
- inhibition at 10 µM [1]: 80%

Structure (SMILES): CCNC(=O)c1nc(-c2ccc(C(F)(F)F)cc2)oc1-c1cc(OC)cc(OC)c1 [Compound 303, 5-(3,5-Dimethoxyphenyl)-N-ethyl-2-(4-(trifluoromethyl)phenyl)oxazole-4-carboxamide]
- inhibition at 1 µM [1]: 26%
- inhibition at 10 µM [1]: 26%

Structure (SMILES): CCNC(=O)c1nc(-c2ccc(C(F)(F)F)cc2)oc1-c1ccc(O)c(O)c1 [Compound 321, 5-(3,4-Dihydroxyphenyl)-N-ethyl-2-(4-(trifluoromethyl)phenyl)oxazole-4-carboxamide]
- inhibition at 1 µM [1]: 50%
- inhibition at 10 µM [1]: 72%

Structure (SMILES): CCCNC(=O)c1nc(-c2ccc(C(F)(F)F)cc2)oc1-c1cccc(OC)c1 [Compound 299, 5-(3-Methoxyphenyl)-N-propyl-2-(4-(Trifluoromethyl)phenyl)oxazole-4-carboxamide]
- inhibition at 1 µM [1]: 40%
- inhibition at 10 µM [1]: 57%

Structure (SMILES): CCNC(=O)c1nc(-c2ccc(C(F)(F)F)cc2)oc1-c1ccc(OC)cc1 [Compound 300, N-Ethyl-5-(4-methoxyphenyl)-2-(4-(trifluoromethyl)phenyl)oxazole-4-carboxamide]
- inhibition at 1 µM [1]: 37%
- inhibition at 10 µM [1]: 47%

Structure (SMILES): CCNC(=O)c1nc(-c2ccc(C(F)(F)F)cc2)oc1-c1cccc(O)c1 [Compound 318, N-Ethyl-5-(3-hydroxyphenyl)-2-(4-(trifluoromethyl)phenyl)oxazole-4-carboxamide]
- inhibition at 1 µM [1]: 70%
- inhibition at 10 µM [1]: 79%

Structure (SMILES): CCOC(=O)c1nc(-c2cccc(OC)c2)oc1-c1ccccc1 [Compound 60, Ethyl 2-(3-methoxyphenyl)-5-phenyloxazole-4-carboxylate]
- inhibition (IL33 and ST2 binding; 30 µM): 27%
- inhibition (IL33 and ST2 binding; 100 µM): 68%

Structure (SMILES): CN1CCN(CCNC(=O)c2nc(-c3ccc(C(C)(C)C)cc3)oc2-c2ccccc2[N+](=O)[O-])CC1 [Compound 269, 2-(4-(tert-Butyl)phenyl)-N-(2-(4-methylpiperazin-1-yl)ethyl)-5-(2-nitrophenyl)oxazole-4-carboxamide]
- inhibition (IL33 and ST2 binding; 30 µM): 33%
- inhibition (IL33 and ST2 binding; 100 µM): 44%

Structure (SMILES): O=C(c1nc(-c2ccc(C(F)(F)F)cc2)oc1-c1ccccc1[N+](=O)[O-])N1CCN(CCO)CC1 [Compound 169, (4-(2-Hydroxyethyl)piperazin-1-yl)(5-(2-nitrophenyl)-2-(4-(trifluoromethyl)phenyl)oxazol-4-yl)methanone]
- inhibition (IL33 and ST2 binding; 30 µM): -4%
- inhibition (IL33 and ST2 binding; 100 µM): 7%

Structure (SMILES): CCOC(=O)c1nc(-c2ccc(C(F)(F)F)cc2)oc1-c1cccc(N(C(C)=O)C(C)=O)c1 [Compound 108, Ethyl 5-(3-(N-acetylacetamido)phenyl)-2-(4-(trifluoromethyl)phenyl)oxazole-4-carboxylate]
- inhibition (IL33 and ST2 binding; 30 µM): -14%
- inhibition (IL33 and ST2 binding; 100 µM): -21%

Structure (SMILES): O=C(Nc1ccccn1)c1nc(-c2ccc(C(F)(F)F)cc2)oc1-c1ccccc1[N+](=O)[O-] [Compound 143, 5-(2-Nitrophenyl)-N-(pyridin-2-yl)-2-(4-(trifluoromethyl)phenyl)oxazole-4-carboxamide]
- inhibition (IL33 and ST2 binding; 30 µM): 9%
- inhibition (IL33 and ST2 binding; 100 µM): 8%

Structure (SMILES): O=C(Nc1ccc(OCc2ccccc2)cc1)c1nc(-c2ccc(C(F)(F)F)cc2)oc1-c1ccccc1[N+](=O)[O-] [Compound 165, N-(4-(Benzyloxy)phenyl)-5-(2-nitrophenyl)-2-(4-(trifluoromethyl)phenyl)oxazole-4-carboxamide]
- inhibition (IL33 and ST2 binding; 30 µM): 10%
- inhibition (IL33 and ST2 binding; 100 µM): 13%

Structure (SMILES): O=C(c1nc(-c2ccc(C(F)(F)F)cc2)oc1-c1ccccc1[N+](=O)[O-])N1CCN(CCN2CCCC2)CC1 [Compound 170, (5-(2-Nitrophenyl)-2-(4-(trifluoromethyl)phenyl)oxazol-4-yl)(4-(2-(pyrrolidin-1-yl)ethyl)piperazin-1-yl)methanone]
- inhibition (IL33 and ST2 binding; 30 µM): 3%
- inhibition (IL33 and ST2 binding; 100 µM): 2%

Structure (SMILES): CN(C)CCNC(=O)c1nc(-c2ccc(N(C)C)cc2)oc1-c1ccccc1[N+](=O)[O-] [Compound 263, N-(2-(Dimethylamino)ethyl)-2-(4-(dimethylamino)phenyl)-5-(2-nitrophenyl)oxazole-4-carboxamide]
- inhibition (IL33 and ST2 binding; 30 µM): -35%
- inhibition (IL33 and ST2 binding; 100 µM): -10%

Structure (SMILES): CN(C)CCNC(=O)c1nc(-c2ccc(C3CC3)cc2)oc1-c1ccccc1 [Compound 279, 2-(4-Cyclopropylphenyl)-N-(2-(dimethylamino)ethyl)-5-phenyloxazole-4-carboxamide]
- inhibition (IL33 and ST2 binding; 30 µM): 16%
- inhibition (IL33 and ST2 binding; 100 µM): 4%

Structure (SMILES): CC(=O)c1ccc(NC(=O)c2nc(-c3ccc(C(F)(F)F)cc3)oc2-c2ccccc2[N+](=O)[O-])cc1 [Compound 147, N-(4-Acetylphenyl)-5-(2-nitrophenyl)-2-(4-(trifluoromethyl)phenyl)oxazole-4-carboxamide]
- inhibition (IL33 and ST2 binding; 30 µM): 1%
- inhibition (IL33 and ST2 binding; 100 µM): 4%

Structure (SMILES): CN(C)CCNC(=O)c1nc(-c2cc(F)cc(F)c2)oc1-c1ccccc1 [Compound 235, 2-(3,5-Difluorophenyl)-N-(2-(dimethylamino)ethyl)-5-phenyloxazole-4-carboxamide]
- inhibition (IL33 and ST2 binding; 30 µM): 3%
- inhibition (IL33 and ST2 binding; 100 µM): 36%

Structure (SMILES): CN(C)CCNC(=O)c1nc(-c2ccc(C(C)(C)C)cc2)oc1-c1ccccc1[N+](=O)[O-] [Compound 268, 2-(4-(tert-Butyl)phenyl)-N-(2-(dimethylamino)ethyl)-5-(2-nitrophenyl)oxazole-4-carboxamide]
- inhibition (IL33 and ST2 binding; 30 µM): -15%
- inhibition (IL33 and ST2 binding; 100 µM): -6%

Structure (SMILES): CCOC(=O)c1nc(-c2cccc(F)c2)oc1-c1ccccc1 [Compound 65, Ethyl 2-(3-fluorophenyl)-5-phenyloxazole-4-carboxylate]
- inhibition (IL33 and ST2 binding; 30 µM): 35%
- inhibition (IL33 and ST2 binding; 100 µM): 32%

Structure (SMILES): O=C(NCCc1ccc(O)cc1)c1nc(-c2ccc(C(F)(F)F)cc2)oc1-c1ccccc1[N+](=O)[O-] [Compound 176, N-(4-Hydroxyphenethyl)-5-(2-nitrophenyl)-2-(4-(trifluoromethyl)phenyl)oxazole-4-carboxamide]
- inhibition (IL33 and ST2 binding; 30 µM): 27%
- inhibition (IL33 and ST2 binding; 100 µM): 36%

Structure (SMILES): O=C(NCCCN1CCOCC1)c1nc(-c2ccc(C(F)(F)F)cc2)oc1-c1ccccc1[N+](=O)[O-] [Compound 157, N-(3-Morpholinopropyl)-5-(2-nitrophenyl)-2-(4-(trifluoromethyl)phenyl)oxazole-4-carboxamide]
- inhibition (IL33 and ST2 binding; 30 µM): 22%
- inhibition (IL33 and ST2 binding; 100 µM): 15%

Structure (SMILES): CN(C)CCNC(=O)c1nc(-c2ccccc2C(F)(F)F)oc1-c1ccccc1[N+](=O)[O-] [Compound 119, N-(2-(Dimethylamino)ethyl)-5-(2-nitrophenyl)-2-(2-(trifluoromethyl)phenyl)oxazole-4-carboxamide]
- inhibition (IL33 and ST2 binding; 30 µM): -6%
- inhibition (IL33 and ST2 binding; 100 µM): -14%

Structure (SMILES): CN(C)CCNC(=O)c1nc(-c2ccc(F)cc2)oc1-c1ccc([N+](=O)[O-])cc1 [Compound 229, N-(2-(Dimethylamino)ethyl)-2-(4-fluorophenyl)-5-(4-nitrophenyl)oxazole-4-carboxamide]
- inhibition (IL33 and ST2 binding; 30 µM): -54%
- inhibition (IL33 and ST2 binding; 100 µM): -98%

Structure (SMILES): CN(C)CCN1CCN(C(=O)c2coc(-c3ccc(C(F)(F)F)cc3)n2)CC1 [Compound 116, (4-(2-(dimethylamino)ethyl)piperazin-1-yl)(2-(4-(trifluoromethyl)phenyl)oxazol-4-yl)methanone]
- inhibition (IL33 and ST2 binding; 30 µM): 13%
- inhibition (IL33 and ST2 binding; 100 µM): 26%

Structure (SMILES): CCN(CC)CCNC(=O)c1nc(-c2ccc(C(C)(C)C)cc2)oc1-c1ccccc1[N+](=O)[O-] [Compound 270, 2-(4-(tert-Butyl)phenyl)-N-(2-(diethylamino)ethyl)-5-(2-nitrophenyl)oxazole-4-carboxamide]
- inhibition (IL33 and ST2 binding; 30 µM): 20%
- inhibition (IL33 and ST2 binding; 100 µM): 37%

Structure (SMILES): CN(C)CCNC(=O)c1nc(-c2ccc3ccccc3c2)oc1-c1ccccc1 [Compound 257, N-(2-(Dimethylamino)ethyl)-2-(naphthalen-2-yl)-5-phenyloxazole-4-carboxamide]
- inhibition (IL33 and ST2 binding; 30 µM): 6%
- inhibition (IL33 and ST2 binding; 100 µM): 1%

Structure (SMILES): CN(C)CCNC(=O)c1nc(-c2cccc(C(F)(F)F)c2)oc1-c1ccccc1 [Compound 121, N-(2-(Dimethylamino)ethyl)-5-phenyl-2-(3-(trifluoromethyl)phenyl)oxazole-4-carboxamide]
- inhibition (IL33 and ST2 binding; 30 µM): -20%
- inhibition (IL33 and ST2 binding; 100 µM): -18%

Structure (SMILES): CCOC(=O)c1nc(-c2ccccc2C(F)(F)F)oc1-c1ccccc1[N+](=O)[O-] [Compound 28, Ethyl 5-(2-nitrophenyl)-2-(2-(trifluoromethyl)phenyl)oxazole-4-carboxylate]
- inhibition (IL33 and ST2 binding; 30 µM): 30%
- inhibition (IL33 and ST2 binding; 100 µM): 53%

Structure (SMILES): CN(C)CCN1CCN(C(=O)c2nc(-c3ccc(C(F)(F)F)cc3)oc2-c2ccccc2)CC1 [Compound 129]
- inhibition (IL33 and ST2 binding; 30 µM): 45%
- inhibition (IL33 and ST2 binding; 100 µM): 79%

— patent US20240287052A1, “NOVEL OXAZOLE DERIVATIVE AND PHARMACEUTICAL COMPOSITION FOR PREVENTING OR TREATING ALLERGIC DISEASES COMPRISING THE SAME” (AZCURIS CO., LTD., priority 2021, published 2024)
